Data set [1] addresses T1, Interleukin-8 receptors, CXCR1/CXCR2 (Homo sapiens, UniProt P25025+P25024).
T1 sequence (P25025 whole entry): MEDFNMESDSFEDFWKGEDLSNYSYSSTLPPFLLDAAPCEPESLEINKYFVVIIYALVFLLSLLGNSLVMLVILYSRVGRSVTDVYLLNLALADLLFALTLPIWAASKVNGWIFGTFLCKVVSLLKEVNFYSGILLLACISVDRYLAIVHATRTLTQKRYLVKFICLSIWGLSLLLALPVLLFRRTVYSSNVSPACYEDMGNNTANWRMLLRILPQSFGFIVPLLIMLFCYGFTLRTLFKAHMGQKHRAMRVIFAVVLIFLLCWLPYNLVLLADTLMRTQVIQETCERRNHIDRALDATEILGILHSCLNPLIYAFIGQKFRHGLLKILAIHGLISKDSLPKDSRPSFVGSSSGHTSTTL
T1 sequence (P25024 whole entry): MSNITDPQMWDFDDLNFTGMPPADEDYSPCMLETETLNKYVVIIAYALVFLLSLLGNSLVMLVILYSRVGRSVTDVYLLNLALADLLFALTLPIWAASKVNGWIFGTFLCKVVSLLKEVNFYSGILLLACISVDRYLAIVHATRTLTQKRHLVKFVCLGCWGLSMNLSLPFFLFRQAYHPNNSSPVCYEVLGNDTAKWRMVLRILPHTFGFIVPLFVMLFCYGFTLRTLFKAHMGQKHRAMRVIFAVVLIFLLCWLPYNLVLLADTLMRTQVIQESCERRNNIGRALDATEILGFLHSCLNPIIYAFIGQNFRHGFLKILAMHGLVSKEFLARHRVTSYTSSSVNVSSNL
The data set can be described thus: Antagonist activity at CXCR1/CXCR2 in human PMN cells assessed as inhibition of GROalpha-mediated myeloperoxidase release. The data set is classed as functional, cell-based.

Data set [2] has as its target T2, C-X-C chemokine receptor type 2 (Homo sapiens, UniProt P25025).
T2 sequence (P25025 whole entry): T1 sequence (P25025 whole entry)
In words: Binding affinity to CXCR2.

The target in data set [3] is T1, Interleukin-8 receptors, CXCR1/CXCR2. The data set can be described thus: Antagonist activity at CXCR1/CXCR2 in human PMN cells assessed as inhibition of IL8-mediated myeloperoxidase release. The data set is classed as functional, cell-based.
For data set [4], the target named is T3, C-X-C chemokine receptor type 1 (Homo sapiens, UniProt P25024).
T3 sequence (P25024 whole entry): T1 sequence (P25024 whole entry)
In words: Binding affinity to CXCR1.

Data set [5] deals with Interleukin-8 receptors, CXCR1/CXCR2 (Homo sapiens) (UniProt P25025+P25024). The data set can be described thus: Antagonist activity at CXCR1/CXCR2 in human PMN cells assessed as inhibition of GROalpha-mediated myeloperoxidase release at 1 uM. In kind it is functional, cell-based. Set-up: scale not given: the % may be the effect or the level left.
Data set [6] can be described thus: Drug level in po dosed rat blood. In kind it is ADME, organism-based. The conditions noted are these: read-out: Activity.

SMILES strings stand for the structures. pKi: −log10 of the molar value.

By IC50 is commonly meant the concentration at which inhibition is half-maximal. A word on the pKi: it is the negative decadic logarithm of the Ki, by convention in mol/L.

For the molecule `CN(C)C(=O)c1cccc(Nc2n[s+]([O-])nc2N[C@@H](c2ccco2)C2(C)CC2)c1O` (stereo not given in full), the IC50 in data set [1] stood at 132 nM; in data set [3], 400 nM. The results for the negative-log Ki (pKi) in data set [2] and in data set [4] were 7.92 and 6.43, respectively.

As for `CC[C@@H](NC1=NS(=O)(=O)NC1=Nc1cccc(C(=O)N(C)C)c1O)c1ccc2c(c1)OCCN2C`, the pKi in data set [2] was 8.05; in data set [4], 5.55.

Consider `CCC(C)(C)[C@@H](NC1=NS(=O)(=O)N=C1Nc1cccc(C(=O)N(C)C)c1O)c1ccco1`, for which the Activity in data set [5] is -19%. Further, the pKi was 7.80 in data set [2] and 6.73 in data set [4].

For `CN(C)C(=O)c1cccc(Nc2n[s+]([O-])nc2NCc2ccc3c(c2)OCO3)c1O` (stereo not given), the pKi in data set [2] was 7.82; in data set [4], 5.00.

Turning to `Cc1ccc([C@H](Nc2n[s+]([O-])nc2Nc2cccc(C(=O)N(C)C)c2O)C(C)(C)C)o1` (stereo not given in full), the IC50 in data set [1] came to 27 nM; in data set [3] it was 80 nM. For the same molecule, the pKi in data set [2] was 8.30; in data set [4], 7.42.

`CC[C@@H](NC1=NS(=O)(=O)N=C1Nc1cccc(C(=O)N(C)C)c1O)c1ccccc1`: in data set [5], the Activity was -39%. Further, in data set [6], the AUC was 2.3 µM·h. The IC50 in data set [3] was 8990 nM. This molecule showed a pKi in data set [4] of 5.05.

`CN(C)C(=O)c1cccc(N=C2NS(=O)(=O)N=C2N[C@@H](c2ccc3c(c2)OCCO3)C(C)(C)C)c1O`: the pKi was 7.62 in data set [2] and 5.70 in data set [4]. Moreover, the AUC in data set [6] worked out at 1.87 µM·h.

Turning to `CC(C)[C@@H](NC1=NS(=O)(=O)N=C1Nc1cccc(C(=O)N(C)C)c1O)c1cccc(F)c1`, the results for the negative-log Ki (pKi) in data set [2] and in data set [4] were 7.96 and 6.19, respectively.

For the molecule `CN(C)C(=O)c1cccc(NC2=NS(=O)(=O)N=C2N[C@@H](c2ccc(Cl)o2)C(C)(C)C)c1O`, the negative-log Ki (pKi) in data set [2] is 8.05; in data set [4], 6.89.

With `CN(C)C(=O)c1cccc(NC2=NS(=O)(=O)N=C2N[C@@H](c2ccco2)C(C)(C)C)c1O`, the Activity in data set [5] worked out at 3%. The pKi is 7.96 in data set [2] and 7.21 in data set [4].

`CC[C@@H](Nc1n[s+]([O-])nc1Nc1cccc(C(=O)N(C)C)c1O)c1cc(C(C)C)co1` (stereo not given in full): the IC50 in data set [1] was found to be 8 nM; in data set [3], 15 nM. Besides, the figures for the negative logarithm of the Ki (pKi) in data set [2] and in data set [4] were 8.05 and 7.21, respectively.

Turning to `CN(C)C(=O)c1cccc(NC2=NS(=O)(=O)N=C2N[C@@H](c2ccc3c(c2)OCO3)C(C)(C)C)c1O`, the negative logarithm of the Ki (pKi) is 8.33 in data set [2] and 7.34 in data set [4].

For the molecule `CC[C@@H](NC1=NS(=O)(=O)N=C1Nc1cccc(C(=O)N(C)C)c1O)c1ccc(C)o1`, the pKi in data set [4] was 5.23.

As to `CN(C)C(=O)c1cccc(Nc2n[s+]([O-])nc2N[C@@H](c2ccco2)C(C)(C)C)c1O` (stereo not given in full), the values for the IC50 in data set [1] and in data set [3] were 8 nM and 20 nM, respectively. Moreover, the values for the negative logarithm of the Ki (pKi) in data set [2] and in data set [4] were 8.64 and 7.68, respectively.

In the case of `Cc1ccc([C@H](NC2=NS(=O)(=O)N=C2Nc2cccc(C(=O)N(C)C)c2O)C2(C)CC2)o1`, in data set [5], the Activity was -11%. Also, the pKi is 6.74 in data set [2] and 5.96 in data set [4].

In the case of `C[C@H](Nc1n[s+]([O-])nc1Nc1cccc(C(=O)N(C)C)c1O)C(C)(C)C` (stereo not given in full), the IC50 in data set [1] is 38 nM; in data set [3], 684 nM. In addition, the pKi in data set [2] was 7.24; in data set [4] it was 6.32. Besides, the AUC in data set [6] was 5.28 µM·h.

Turning to `CN(C)C(=O)c1cccc(Nc2n[s+]([O-])nc2N[C@@H](c2ccccc2)C(C)(C)C)c1O` (stereo not given in full), the figures for the 50% inhibitory concentration (IC50) in data set [1] and in data set [3] were 28 nM and 142 nM, respectively. Moreover, the pKi is 8.40 in data set [2] and 6.89 in data set [4].

Consider `CC[C@@H](Nc1n[s+]([O-])nc1Nc1cccc(C(=O)N(C)C)c1O)c1ccc(C)o1` (stereo not given in full), for which the half-inhibitory concentration (IC50) in data set [1] came to 133 nM; in data set [3] it was 539 nM. Further, the pKi in data set [2] is 8.52; in data set [4] it was 6.63.

As for `CC(C)[C@@H](Nc1n[s+]([O-])nc1Nc1cccc(C(=O)N(C)C)c1O)c1cccc(F)c1` (stereo not given in full), the pKi in data set [2] was 8.10; in data set [4], 5.40.

`Cc1cc([C@H](Nc2n[s+]([O-])nc2Nc2cccc(C(=O)N(C)C)c2O)C(C)C)oc1C` (stereo not given in full): the IC50 in data set [1] is 13 nM; in data set [3], 54 nM. In addition, in data set [6], the AUC was 119 µM·h.

Take `CN(C)C(=O)c1cccc(NC2=NS(=O)(=O)N=C2N[C@@H](c2ccc3c(c2)OCCO3)C(C)(C)C)c1O`: the Activity in data set [5] was -12%.

As to `CC[C@@H](Nc1n[s+]([O-])nc1Nc1cccc(C(=O)N(C)C)c1O)c1ccccc1` (stereo not given in full), the half-maximal inhibitory concentration (IC50) in data set [1] came out at 331 nM. The negative logarithm of the Ki (pKi) is 8.30 in data set [2] and 5.91 in data set [4].

The record behind these values is ChEMBL document CHEMBL1140777, “3,4-Diamino-2,5-thiadiazole-1-oxides as potent CXCR2/CXCR1 antagonists” (Bioorg Med Chem Lett, 2008).
